This is an account of results in US20080227866A1, “Hydroxyphenylalkadiones and Their Use for Masking Bitter Taste and/or for Intensifying Sweet Taste” (SYMRISE GMBH & CO. KG, priority 2005, published 2008).

Experiment [1] is described as follows: Bitterness reduction in a bitter principle solution, rated by a group of experts (caffeine). It counts as in vivo. Conditions: 100 ppm substance in aqueous 500 ppm caffeine; for % reduction in the bitter impression: calculated from the average panel values; for Bitter impression (1-10) with: panel mean ± 95% confidence interval. On the procedure:
In order to quantify the reduction in the bitter impression, the bitterness of an aqueous bitter principle solution and of a sample which contained the same amount of bitter principle and a varying amount of the compound given by way of example was determined by a group of experts ([…]). The evaluation was made as a calculation of the reduction (in %) of the bitter impression from the average values of the estimations of the bitter principle solution and of the solutions containing bitter principle and compound given by way of example. 2,4-Dihydrobenzoic acid (2,4-DHB) was used as a comparison from U.S. Pat. No. 5,643,941. HED means homoeriodictyol sodium salt according to EP 1 258 200 B1.
(§1) Table: Bitterness of a bitter principle solution and of a solution containing bitter principle and a compound given by way of example (2,4-DHB=2,4-dihydroxybenzoic acid, HED=homoeriodictyol sodium salt according to EP 1 258 200 B1). “Testers positive” means the number of testers who were able to detect masking; the 95% confidence intervals are stated as errors; p<x means the significance according to the Student t test method (cf. statistics textbooks), n.s. means not significant.

A short description of experiment [2]: Intensification of the sweet impression of a sucrose solution, rated by a group of experts. Type of experiment: in vivo. Conditions: 100 ppm test compound in 5 wt. % sucrose; for % intensification of the sweet impression: calculated from the average panel values; for Sweet impression (1-10) of a 5% strength sucrose solution with Test substance: panel mean ± standard deviation; for number of testers who found the test solution sweeter: second figure in brackets (total/positive). On the procedure: In order to quantify the intensification of the sweet impression, the sweetness of a solution containing 5 wt. % of sucrose and of a sample which contained 5 wt. % of sucrose and 100 ppm of the test compound was determined by a group of experts (classification 0 [not sweet] to 10 [extremely sweet]). The evaluation was made as a calculation of the intensification (in %) of the sweet impression from the average values of the estimations of the sucrose solution and of the solution containing sucrose and compound 2.
Table: Sweetness (a) of a sucrose solution and (b) of a solution containing sucrose and test substance; the standard deviations are stated as errors. In the last column, the total number of testers is stated against the number of testers who found the test solution sweeter.

A short description of experiment [3]: Bitterness reduction in a bitter principle solution, rated by a group of experts (quinine hydrochloride). It counts as in vivo. As to conditions: 100 ppm substance in aqueous 5 ppm quinine hydrochloride. On the procedure:
In order to quantify the reduction in the bitter impression, the bitterness of an aqueous bitter principle solution and of a sample which contained the same amount of bitter principle and a varying amount of the compound given by way of example was determined by a group of experts (classification 0 [not bitter] to 10 [extremely bitter]). The evaluation was made as a calculation of the reduction (in %) of the bitter impression from the average values of the estimations of the bitter principle solution and of the solutions containing bitter principle and compound given by way of example. 2,4-Dihydrobenzoic acid (2,4-DHB) was used as a comparison from U.S. Pat. No. 5,643,941. HED means homoeriodictyol sodium salt according to EP 1 258 200 B1.
as §1

For experiment [4] the following is noted: described in DE 2 161,528; cited from earlier work.

With `O=C(O)c1ccc(O)cc1O` [2,4-DHB, 2,4-dihydroxybenzoic acid, reference compound], in experiment [1], the “Testers positive (number of testers who were able to detect masking)” value amounted to 9; the “% reduction in the bitter impression” value is 3%, n.s; the “Bitter impression (1-10) with” value stood at 5.0 ± 1.0.

For the molecule `COc1ccc(/C=C/C(=O)CC(C)=O)cc1O` [compound 10, (5E)-6-(3-Hydroxy-4-methoxyphenyl)hex-5-ene-2,4-dione], in experiment [1], the “Testers positive (number of testers who were able to detect masking)” value is recorded as 12, the “% reduction in the bitter impression” value is recorded as 23% and the “Bitter impression (1-10) with” value came out at 4.6 ± 0.9.

As to `COc1ccc(CCC(=O)CC(C)=O)cc1O` [compound 11, 6-(3-hydroxy-4-methoxyphenyl)hexane-2,4-dione], in experiment [2], the “% intensification of the sweet impression” value is given as “+28%”, the “Sweet impression (1-10) of a 5% strength sucrose solution with Test substance” value was 6.6 ± 1.2 and the “number of testers who found the test solution sweeter” value is reported as 13. In experiment [1], the “Testers positive (number of testers who were able to detect masking)” value came out at 11; the “% reduction in the bitter impression” value is recorded as 17%, n.s; the “Bitter impression (1-10) with” value turned out to be 4.2 ± 0.8.

With `COc1cc(/C=C/C(=O)CC(C)=O)ccc1O` [compound 1, (5E)-6-(4-hydroxy-3-methoxyphenyl)hex-5-ene-2,4-dione], in experiment [1], the “Testers positive (number of testers who were able to detect masking)” value is given as 9, the “% reduction in the bitter impression” value is 21%, and the “Bitter impression (1-10) with” value is listed as 5.1 ± 1.0.

As for `COc1cc(CCC(=O)CC(C)=O)ccc1O` [compound 4, 6-(4-hydroxy-3-methoxyphenyl)hexane-2,4-dione], the “Testers positive (number of testers who were able to detect masking)” value in experiment [3] was determined as 10. Further, in experiment [3] (calculated from the average panel values), the “% reduction in the bitter impression” value is reported as 21%,. For the same molecule, the “Bitter impression (1-10) with” value in experiment [3] (panel mean ± 95% confidence interval) is given as 1.3 ± 0.8. In experiment [2], the “% intensification of the sweet impression” value is “+13%”, the “Sweet impression (1-10) of a 5% strength sucrose solution with Test substance” value came out at 5.3 ± 1.6 and the “number of testers who found the test solution sweeter” value is on record as 9. In addition, in experiment [1], the “Testers positive (number of testers who were able to detect masking)” value amounted to 15, the “% reduction in the bitter impression” value was 34%, and the “Bitter impression (1-10) with” value is 3.9 ± 0.8.

Regarding `COc1cc(CCC(=O)C2C(=O)CCC2=O)ccc1O` [compound 9, 2-(3-[4-hydroxy-3-methoxyphenyl]propionyl)-cyclopentane-1,3-dione], the antihypertensive action entry in experiment [4] is given as “weak antihypertensive agent”.
